Our source for the remaining activity values is PMC8550792, “Evolution of kinase polypharmacology across HSP90 drug discovery” (Cell Chemical Biology, 2021).

SMILES strings stand for the structures. Like-named read-outs stand apart in the source and are kept apart here.

What all share (assay): biochemical
Common to all, as to type: biochemical

Assay [1] concerns the target T1, 382 unique human kinases (Homo sapiens, UniProt Q00534).
T1 construct: purchased Reaction Biology (HotSpot contract assay)
To be noted: kinase CDK6/cyclin D1; compound 10 uM; read-out: % Enzyme Activity (relative to DMSO controls).

Assay [2] concerns the target T2, 382 unique human kinases (Homo sapiens, UniProt P11802).
T2 construct: purchased Reaction Biology (HotSpot contract assay)
To be noted: CDK4/cyclin D1; 10 uM; read-out: % Enzyme Activity (relative to DMSO controls).

The target in assay [3] is T3, 382 unique human kinases (Homo sapiens, UniProt P50750).
T3 construct: purchased Reaction Biology (HotSpot contract assay)
T3 sequence (P50750 whole entry): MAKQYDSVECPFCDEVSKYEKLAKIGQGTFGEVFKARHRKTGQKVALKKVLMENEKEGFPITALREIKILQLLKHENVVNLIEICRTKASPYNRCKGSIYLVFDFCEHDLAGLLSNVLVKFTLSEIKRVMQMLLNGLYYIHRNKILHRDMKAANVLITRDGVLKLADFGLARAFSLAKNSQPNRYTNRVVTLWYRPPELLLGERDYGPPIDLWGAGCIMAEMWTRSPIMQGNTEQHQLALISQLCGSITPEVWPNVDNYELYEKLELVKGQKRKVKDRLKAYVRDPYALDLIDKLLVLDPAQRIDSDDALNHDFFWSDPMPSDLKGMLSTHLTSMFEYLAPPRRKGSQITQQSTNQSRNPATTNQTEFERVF
To be noted: read-out: % Enzyme Activity (relative to DMSO controls).

Assay [4] deals with T4, 382 unique human kinases (Homo sapiens, UniProt P24941).
T4 construct: purchased Reaction Biology (HotSpot contract assay)
To be noted: read-out: % Enzyme Activity (relative to DMSO controls).

T1 sequence (Q00534 whole entry): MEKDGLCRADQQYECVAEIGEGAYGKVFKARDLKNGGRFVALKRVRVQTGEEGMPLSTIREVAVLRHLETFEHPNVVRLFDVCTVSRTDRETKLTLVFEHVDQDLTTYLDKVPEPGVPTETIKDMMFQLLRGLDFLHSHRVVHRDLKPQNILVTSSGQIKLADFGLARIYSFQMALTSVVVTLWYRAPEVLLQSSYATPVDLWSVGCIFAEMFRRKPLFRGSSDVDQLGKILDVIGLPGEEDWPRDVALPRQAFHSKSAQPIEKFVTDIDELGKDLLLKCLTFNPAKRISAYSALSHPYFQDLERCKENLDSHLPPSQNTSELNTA
T2 sequence (P11802 whole entry): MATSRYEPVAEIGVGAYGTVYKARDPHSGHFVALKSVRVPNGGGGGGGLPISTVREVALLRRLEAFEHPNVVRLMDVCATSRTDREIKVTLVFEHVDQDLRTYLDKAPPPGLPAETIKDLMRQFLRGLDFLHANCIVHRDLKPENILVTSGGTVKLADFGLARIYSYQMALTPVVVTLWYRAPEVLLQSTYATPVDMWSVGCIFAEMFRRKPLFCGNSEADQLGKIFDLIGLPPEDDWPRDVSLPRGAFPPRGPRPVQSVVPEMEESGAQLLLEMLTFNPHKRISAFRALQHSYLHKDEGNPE

As for `CC(C)c1cc(-c2n[nH]c(=O)n2-c2ccc3c(ccn3C)c2)c(O)cc1O` [Ganetespib (STA9090)], the remaining activity at 10 µM is 85% at 382 unique human kinases [1]; 65.6% at 382 unique human kinases [2]; 69.9% on 382 unique human kinases [3] (CDK9/cyclin T2, 10 uM); 87% at 382 unique human kinases [3] (kinase CDK9/cyclin K, compound 10 uM); 74.3% at 382 unique human kinases [4] (CDK2/cyclin A, 10 uM); 92.8% on 382 unique human kinases [4] (kinase CDK2/cyclin O, compound 10 uM).
